Reference: PubChem BioAssay (NCI)
Several values for one entry are separate records, joined by “and”; a condition that tells them apart may be missing. Identical values can stand only once.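 Protocol summary: plate cells (96-well), add compound at 5 concentrations, incubate 48 h, interpolate endpoints linearly. GI50: concentration for 50% inhibition of growth. TGI: concentration producing complete growth inhibition.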

Tests used:
Experiment in all cases: NCI anticancer screen, dose series, 48 h
UO-31 renal = system: UO-31 renal
KM12 colon = system: KM12 colon
IGROV1 ovarian = system: IGROV1 ovarian
HCT-15 colon = system: HCT-15 colon
LOX IMVI melanoma = system: LOX IMVI melanoma
OVCAR-8 ovarian = system: OVCAR-8 ovarian
HOP-18 NSCLC = system: HOP-18 NSCLC
RXF-631 renal = system: RXF-631 renal
T-47D breast = system: T-47D breast
PC-3 prostate = system: PC-3 prostate

| Structure (SMILES) | TGI (UO-31 renal) | TGI (KM12 colon) | TGI (IGROV1 ovarian) | TGI (HCT-15 colon) [µM] | TGI (LOX IMVI melanoma) | TGI (OVCAR-8 ovarian) | TGI (HOP-18 NSCLC) [µM] | TGI (RXF-631 renal) [µM] | GI50 (UO-31 renal) | GI50 (KM12 colon) | GI50 (IGROV1 ovarian) | GI50 (HCT-15 colon) | GI50 (T-47D breast) | TGI (T-47D breast) | GI50 (PC-3 prostate) | TGI (PC-3 prostate) | GI50 (LOX IMVI melanoma) | GI50 (OVCAR-8 ovarian) |
| --- | --- | --- | --- | --- | --- | --- | --- | --- | --- | --- | --- | --- | --- | --- | --- | --- | --- | --- |
| Cc1ccc(SC2C(C)(C)N(C(C)C)P2(=O)N(C(C)C)C(C)C)cc1 (centres undefined) | > 100 µM | > 100 µM | > 100 µM | > 100 | > 59.9 µM | > 100 µM | > 100 | – | – | – | – | – | – | – | – | – | – | – |
| COC(=O)CSc1n[nH]c(-c2ccccc2)n1 | > 100 µM | > 100 µM | > 100 µM | > 100 | – | > 100 µM | > 100 | – | – | – | – | – | – | – | – | – | – | – |
| COC(=O)[C@H]1CC(=O)C=C2CCCC21 (some centres undefined) | > 100 µM | > 100 µM | > 100 µM | > 100 | > 100 µM | > 100 µM | – | > 100 | – | – | – | – | – | – | – | – | – | – |
| CC1(C)C(=O)CCC(=O)C(C)(C)C2=CC=C(O2)C(C)(C)C(=O)CCC(=O)C(C)(C)C2=CC=C1O2 | – | > 100 µM | > 100 µM | > 100 | > 100 µM | > 100 µM | > 100 | – | – | – | – | – | – | – | – | – | – | – |
| CC(C)(C)C1CCC(CI)(N=[N+]=[N-])CC1 (centres undefined) | > 100 µM | > 100 µM | > 100 µM | > 100 | – | > 100 µM | > 100 | – | – | – | – | – | – | – | – | – | – | – |
| O=C1c2cccc3cccc(c23)C(=O)N1CC#Cc1ccc2c3c(cccc13)C(=O)N(CCN1CCNCC1)C2=O | 84.8 µM | 4.6 µM | 13 µM | > 100 | 3.87 µM | 5.16 µM | – | – | 20.6 µM | 2.12 µM | 3.2 µM | 14.9 µM | 2.03 µM | 5.11 µM | 3.22 µM | 11.6 µM | 1.94 µM | 2.18 µM |
| O=[N+]([O-])c1ccc(Oc2cccc(C(F)(F)F)c2)c([N+](=O)[O-])c1 | 13.8 µM | 6.73 µM | 14.2 µM | 10.3 | 10.8 µM | 8.16 µM | – | – | 3.15 µM | 2.52 µM | 3.02 µM | 2.41 µM | 2.55 µM | 7.66 µM | 4.2 µM | 16.4 µM | 0.447 µM | 2.48 µM |
| O=C(O)c1ccccc1-c1ccccc1C(=O)Nc1ccc2c(c1)Cc1ccccc1-2 | > 100 µM | > 100 µM | > 100 µM | 56 | 54.5 µM | > 100 µM | – | – | – | – | – | – | – | > 100 µM | – | > 100 µM | – | – |
| Cc1cn(C2CC(N=[N+]=[N-])C(CO)O2)c(=O)[nH]c1=O (centres undefined) | > 1000 µM | > 1000 µM | > 1000 µM | > 1000 | > 1000 µM | > 1000 µM | – | – | > 1000 µM | 472 µM | > 1000 µM | > 1000 µM | > 1000 µM | > 1000 µM | – | > 1000 µM | 532 µM | – |
| O=C1NC(=O)C(N2CCc3ccccc32)=C1c1ccc(Cl)cc1 | > 25 µM | > 25 µM | > 25 µM | > 25 | > 25 µM | > 25 µM | – | – | > 17.3 µM | > 25 µM | > 25 µM | > 25 µM | > 25 µM | > 25 µM | > 22.8 µM | > 25 µM | > 25 µM | > 25 µM |
| Nc1nc2c(c(=O)[nH]1)N=C(COP(=O)(O)OP(=O)(O)O)CN2 | > 100 µM | > 100 µM | > 100 µM | > 100 | > 100 µM | > 100 µM | – | – | – | – | – | – | – | > 100 µM | – | > 100 µM | – | – |
| NS(=O)(=O)c1cccc(-c2cc3ccncc3cc2OCc2ccccc2)c1 | > 21.4 µM | > 25 µM | > 25 µM | > 25 | > 25 µM | > 25 µM | – | – | 5.76 µM | 10.7 µM | > 20.7 µM | 7.67 µM | 12.7 µM | > 25 µM | 10.8 µM | > 25 µM | 12.4 µM | 10.1 µM |
| Cc1cc(Br)c2nsnc2c1[N+](=O)[O-] | 8.23 µM | 0.665 µM | 3.62 µM | 18.4 | 3.07 µM | 12.1 µM | – | – | 2.05 µM | 0.245 µM | 1.65 µM | 4.28 µM | 0.921 µM | 5.96 µM | 4.49 µM | 15.8 µM | 0.94 µM | 3.18 µM |
| CC1=C(C(=O)Nc2cccc(C(F)(F)F)c2)C(c2ccccc2F)C(C(=O)Nc2cccc(C(F)(F)F)c2)=C(C)N1 | 17.3 µM | 14.8 µM | 43.7 µM | – | 18.3 µM | 28.2 µM | – | 23.2 | – | – | – | – | – | – | – | – | – | – |
| Nc1cccc2c1CN(C1CCC(=O)NC1=O)C2=O (centres undefined) | > 100 µM | > 100 µM | > 100 µM | > 100 | > 100 µM | > 100 µM | – | – | > 100 µM | > 100 µM | > 100 µM | > 100 µM | > 100 µM | > 100 µM | > 100 µM | > 100 µM | > 100 µM | > 100 µM |
| O=C1c2ccccc2C(=O)c2c(NCCNCCO)ccc(NCCNCCO)c21 | 38.1 µM and 27.7 µM and 36.9 µM | 9.12 µM and 21.1 µM and 20.3 µM | 10.3 µM and 9.84 µM | > 100 | 4.19 µM and 6.13 µM and 6.12 µM | 6.5 µM and 6.81 µM and 6.08 µM | – | – | 5.36 µM and 1.58 µM and 2.79 µM | 2.4 µM and 2.47 µM and 3.52 µM | 1.14 µM and 0.55 µM and 0.811 µM | 10.1 µM and 14.8 µM and 11.2 µM | 1.14 µM and 1.67 µM and 1.25 µM | 7.09 µM and 7.05 µM and 5.97 µM | 2.27 µM and 2.34 µM and 1.67 µM | 17.8 µM and 13.4 µM and 7.54 µM | 0.426 µM and 0.941 µM and 0.545 µM | 0.349 µM and 0.718 µM and 0.821 µM |
| CN(C(=O)C12C3C4C1C1C2C3C41C(=O)N(C)C(C)(C)C)C(C)(C)C (centres undefined) | > 50 µM | – | > 50 µM | > 50 | – | > 50 µM | – | > 50 | – | – | – | – | – | – | – | – | – | – |
| O=[N+]([O-])c1ccc(N/N=C/c2ccccc2O)nc1 | > 100 µM | > 100 µM | > 100 µM | > 100 | > 100 µM | 51.2 µM | – | – | 0.623 µM | 1.19 µM | 2.7 µM | 0.639 µM | 3.2 µM | > 100 µM | 4.3 µM | > 100 µM | 0.92 µM | 0.407 µM |
| CC(=O)Nc1c(I)c(C(=O)O)c(I)c(N(C)C(C)=O)c1I | > 100 µM | > 100 µM | > 100 µM | > 100 | > 100 µM | > 100 µM | – | – | > 100 µM | > 100 µM | > 100 µM | > 100 µM | > 100 µM | > 100 µM | > 100 µM | > 100 µM | > 100 µM | > 100 µM |
| CC(C)(C)C1CCP(=O)(c2ccccc2)CC1 (centres undefined) | > 100 µM | > 100 µM | > 100 µM | > 100 | > 100 µM | > 100 µM | > 100 | – | – | – | – | – | – | – | – | – | – | – |
